Results taken from patent US8946299B2, “Use of calixarenes associated with an antibiotic in the treatment of bacterial infections” (Universite de Lorraine, priority 2011, dated 2015).

Tests used:
[1] = system: EcR2: Cephalosporinase-Hyperproducing Escherichia coli; test: Antibiogram by the disk diffusion technique; assay type: cell-based; settings: Table B2; strain EcR2; diameters
Description: 5.2 EcR2: Cephalosporinase-Hyperproducing Escherichia coli Having an Associated Resistance to the Aminoglycosides, Quinolones and the Trimethoprim-Sulphamethoxazole Combination
The bacterial and antibiogram identification is carried out by the VITEK 1 system (bioMérieux) and by the disk diffusion technique

[2] = system: EcR1: Penicillinase-Producing Escherichia coli without Associated Resistance; test: Antibiogram by the disk diffusion technique; assay type: cell-based; settings: for Results (diameter): Table A1, category from diameter vs Dmin Dmax
Description: (§1) 5. Identification and Antibiogram 5.1 EcR1: Penicillinase-Producing Escherichia coli without Associated Resistance
(§2) The bacterial and antibiogram identification is carried out by the VITEK 2 system (bioMérieux) and by the disk diffusion technique.

[3] = system: EcR1: Penicillinase-Producing Escherichia coli without Associated Resistance; test: Antibiogram, MIC by the VITEK 2 system; assay type: cell-based; settings: Table A1, category from MIC
Description: as §1, §2

[4] = system: Staphylococcus aureus strain ATCC 29213 (wild type); test: Chessboard technique: MICs alone and synergism of Cx1 combinations; assay type: cell-based; settings: antibiotic used alone; second figure of the cell; n = 4
Description: (§3) Three reference strains were used, corresponding to those studied for the MICs and MBCs (Minimum Bactericidal Concentration): Escherichia coli ATCC 25922, Staphylococcus aureus ATCC 29213, Pseudomonas aeruginosa ATCC 27853. For each of these strains 3 corresponding clinical isolates were chosen, having various antibiotic-resistance profiles, routinely used in standard fashion: • EcR1, EcR2, EcR3; • SaR1, SaR3, SaR4; • PaR2, PaR3, PaR5.
(§4) 1.3. Procedure: Chessboard Technique
(§5) The bacterial suspension is transferred to a 15 mL Falcon tube, centrifuged for 10 min at 4500 g, then the pellet is re-suspended in 1 mL of sterile distilled water. Suitable dilutions are then prepared in order to obtain a bacterial inoculum between 5·10^5 and 5·10^6 CFU/mL.
(§6) The MICs of the antibiotics were previously determined for each strain, by the method of microdilution in a liquid medium (CLSI (Clinical and Laboratory Standards Institute), 2003).
(§7) The same procedure is followed for the Cx1. […] Thus 64 ATB/Cx1 combinations are obtained.
(§8) The final volume contained in each of the wells must be 100 μL. Two controls must be present on each plate: • column 1 and 12: medium control • column 2 and 11: medium+bacteria control
(§9) Cx1: […] in the wells of […], starting with the lowest concentration.
(§10) ATB: 25 μL in the wells of rows H to A (columns 3 to 11), starting with the lowest concentration.
(§11) 50 μL in each of the wells of columns 2 to 11.
(§12) D2: Reading the Turbidity at 540 Nm.
(§13) The FIC (Fractional Inhibitory Concentration Index) value is determined by the following formula:
(§14) [formula] MICA in combination MICA alone MICB in combination MICB alone
(§15) When FIC≦0.5, there is a synergistic effect between antibiotic A and antibiotic B.
(§16) When 0.5<FIC≦1, there is an additive effect between antibiotic A and antibiotic B.
(§17) When 1<FIC≦4, there is an indifferent effect between antibiotic A and antibiotic B.
(§18) When FIC>4, there is an antagonistic effect between antibiotic A and antibiotic B.
(§19) For each strain and each antibiotic/Cx1 combination, the experiments were repeated a minimum of 3 times.

[5] = system: MRSA strain having a resistance to the aminoglycosides, fluoroquinolones, macrolides-lincosamides-synergistins and ofloxacin (SaR4); test: as above; assay type: cell-based, Staphylococcus aureus; settings: antibiotic used alone; second figure of the cell; n = 4
Description: as §3, §4, §5, §6, §7, §8, §9, §10, §11, §12, §13, §14, §15, §16, §17, §18, §19

[6] = system: MRSA strain without associated resistance (SaR1); test: as above; assay type: cell-based, Staphylococcus aureus; settings: antibiotic used alone; second figure of the cell; n = 4
Description: as §3, §4, §5, §6, §7, §8, §9, §10, §11, §12, §13, §14, §15, §16, §17, §18, §19

[7] = system: MRSA strain having a resistance to the aminoglycosides and fluoroquinolones (SaR3); test: as above; assay type: cell-based, Staphylococcus aureus; settings: antibiotic used alone; second figure of the cell; n = 4
Description: as §3, §4, §5, §6, §7, §8, §9, §10, §11, §12, §13, §14, §15, §16, §17, §18, §19

[8] = system: ESBL-producing strain of Escherichia coli (EcR3); test: as above; assay type: cell-based; settings: antibiotic used alone; second figure of the cell; n = 4
Description: as §3, §4, §5, §6, §7, §8, §9, §10, §11, §12, §13, §14, §15, §16, §17, §18, §19

[9] = system: cephalosporinase-hyperproducing strain of Escherichia coli (EcR2); test: as above; assay type: cell-based; settings: antibiotic used alone; second figure of the cell; n = 4
Description: as §3, §4, §5, §6, §7, §8, §9, §10, §11, §12, §13, §14, §15, §16, §17, §18, §19

[10] = system: penicillinase-producing strain of Escherichia coli without associated resistance (EcR1); test: as above; assay type: cell-based; settings: antibiotic used alone; second figure of the cell; n = 4
Description: as §3, §4, §5, §6, §7, §8, §9, §10, §11, §12, §13, §14, §15, §16, §17, §18, §19

[11] = system: Escherichia coli strain ATCC 25922 (wild type); test: as above; assay type: cell-based; settings: antibiotic used alone; second figure of the cell; n = 4
Description: as §3, §4, §5, §6, §7, §8, §9, §10, §11, §12, §13, §14, §15, §16, §17, §18, §19

[12] = system: Escherichia coli, Staphylococcus aureus and Pseudomonas aeruginosa strains; test: Chessboard technique, summary over all strains and combinations tested; assay type: cell-based
Description: as §3, §4
The FIC (Fractional Inhibitory Concentration Index) value is determined by the following formula: […]
as §19

[13] = system: Pseudomonas aeruginosa strain having a resistance to β-lactams (including the carbapenems), aminoglycosides, the trimethoprim-sulphamethoxazole combination and …; test: Chessboard technique: MICs alone and synergism of Cx1 combinations; assay type: cell-based; settings: antibiotic used alone; second figure of the cell; n = 4
Description: as §3, §4, §5, §6, §7, §8, §9, §10, §11, §12, §13, §14, §15, §16, §17, §18, §19

[14] = system: mucoid strain of Pseudomonas aeruginosa having a resistance to rifampicin and the trimethoprim-sulphamethoxazole combination (PaR5); test: as above; assay type: cell-based; settings: antibiotic used alone; second figure of the cell; n = 4
Description: as §3, §4, §5, §6, §7, §8, §9, §10, §11, §12, §13, §14, §15, §16, §17, §18, §19

[15] = system: Pseudomonas aeruginosa strain ATCC 27853 (wild type); test: as above; assay type: cell-based; settings: antibiotic used alone; second figure of the cell; n = 4
Description: as §3, §4, §5, §6, §7, §8, §9, §10, §11, §12, §13, §14, §15, §16, §17, §18, §19

[16] = system: Pseudomonas aeruginosa strain having a resistance to β-lactams, the trimethoprim-sulphamethoxazole combination and fosfomycin (PaR2); assay type: cell-based; settings: antibiotic used alone; second figure of the cell; n = 4
Description: as §3, §4, §5, §6, §7, §8, §9, §10, §11, §12, §13, §14, §15, §16, §17, §18, §19

Compound: CO[C@@]1(NC(=O)Cc2cccs2)C(=O)N2C(C(=O)O)=C(COC(N)=O)CS[C@@H]21 [Cefoxitin]
- diameter in mm [1]: 11 mm
- Results (diameter) [2]: Susceptible
- Results (MIC) [3]: Susceptible

Compound: CC(=O)NC[C@H]1CN(c2ccc(N3CCOCC3)c(F)c2)C(=O)O1 [Linezolid]
- Initials MIC (antibiotic) [4]: 2 µg/mL
- MIC (antibiotic) [5]: 2 µg/mL
- MIC (antibiotic) [6]: 2 µg/mL
- MIC (antibiotic) [7]: 2 mg/L

Compound: O=C(O)c1cn(C2CC2)c2cc(N3CCNCC3)c(F)cc2c1=O [Ciprofloxacin]
- Results (diameter) [2]: Susceptible

Compound: CCN[C@@H]1C[C@H](N)[C@@H](O[C@H]2OC(CN)=CC[C@H]2N)[C@H](O)[C@H]1O[C@H]1OC[C@](C)(O)[C@H](NC)[C@H]1O [Netilmicin]
- Results (diameter) [2]: Susceptible
- Results (MIC) [3]: Susceptible

Compound: CCN1CCN(C(=O)N[C@@H](C(=O)N[C@@H]2C(=O)N3[C@@H]2SC(C)(C)[C@@H]3C(=O)O)c2ccccc2)C(=O)C1=O [Piperacillin]
- Results (diameter) [2]: Intermediate
- Initial MICs (antibiotic) [8]: 128 mg/L
- Initial MICs (antibiotic) [9]: 32 mg/L
- Initial MICs (antibiotic) [10]: 256 mg/L
- Initial MICs (antibiotic) [11]: 2 mg/L
- Results (MIC) [3]: Susceptible

Compound: CCn1cc(C(=O)O)c(=O)c2ccc(C)nc21 [Nalidixic acid]
- Results (MIC) [3]: Susceptible

Compound: CC(=O)OCC1=C(C(=O)O)N2C(=O)[C@@H](NC(=O)Cc3cccs3)[C@H]2SC1 [C1G, Cefalotine]
- Results (diameter) [2]: Intermediate
- Results (MIC) [3]: Susceptible

Compound: CN(C)c1cc(NC(=O)CNC(C)(C)C)c(O)c2c1C[C@H]1C[C@H]3[C@H](N(C)C)C(O)=C(C(N)=O)C(=O)[C@@]3(O)C(O)=C1C2=O [Tigecycline]
- nature of the interaction between Cx1 and the antibiotic [12]: synergism

Compound: C[C@H]1COc2c(N3CCN(C)CC3)c(F)cc3c(=O)c(C(=O)O)cn1c23 [Levofloxacin]
- MIC (antibiotic) [7]: 8/8 mg/L

Compound: CC1(C)S[C@@H]2[C@H](NC(=O)[C@H](N)c3ccc(O)cc3)C(=O)N2[C@H]1C(=O)O [Amoxicillin]
- Results (diameter) [2]: Resistant
- Initial MICs (antibiotic) [9]: 256 mg/L
- Initial MICs (antibiotic) [11]: 4/4 mg/L
- Results (MIC) [3]: Resistant

Compound: CO[C@H]1/C=C/O[C@@]2(C)Oc3c(C)c(O)c4c(O)c(c(/C=N/N5CCN(C)CC5)c(O)c4c3C2=O)NC(=O)/C(C)=C\C=C\[C@H](C)[C@H](O)[C@@H](C)[C@@H](O)[C@@H](C)[C@H](OC(C)=O)[C@@H]1C [Rifampicin]
- diameter in mm ([2]; Table A2, diameter): 16 mm
- Initial MICs (antibiotic) [8]: 4 mg/L
- MIC (antibiotic) [13]: 32/32 mg/L
- MIC (antibiotic) [14]: 16 µg/mL
- Initial MICs (antibiotic) [9]: 2/2 mg/L
- MIC (antibiotic) [15]: 64 µg/mL
- Initial MICs (antibiotic) [10]: 4 mg/L
- Initial MICs (antibiotic) [11]: 4/4 mg/L
- MIC (antibiotic) [16]: 64 µg/mL
